The source of these data is US20240327364A1, “THERAPEUTIC TARGETING OF GPR68 TO INDUCE FERROPTOSIS” (University Of Maryland, Baltimore, priority 2023, published 2024).

One assay deals with T1, BMPR1A (Homo sapiens, UniProt P36894).
T1 construct: purchased DiscoveRx (Fremont, CA)
Put plainly: KinomeScan. Format: binding. Conditions: read-out: % Control.

The target of a further assay is T2, CDK4-cyclinD1 (Homo sapiens, UniProt P11802).
T2 construct: purchased DiscoveRx (KinomeScan service)
Kind of assay: KinomeScan. Format: binding. Conditions: read-out: % Control.

Another assay concerns the target T3, DDR1 (Homo sapiens, UniProt Q08345).
T3 construct: purchased DiscoveRx (Fremont, CA), KinomeScan service
Kind of assay: KinomeScan. Format: binding. Conditions: read-out: % Control.

Another assay deals with T4, DMPK (Homo sapiens, UniProt Q09013).
T4 construct: purchased DiscoveRx (Fremont, CA), KinomeScan service
Put plainly: KinomeScan. Format: binding. To be noted: read-out: % Control.

The next assay concerns the target T5, EGFR(L747-T751del, Sins) (Homo sapiens, UniProt P00533, DEL747-750/T751S).
T5 construct: purchased DiscoveRx (Fremont, CA), KinomeScan service
Put plainly: KinomeScan. Conditions: read-out: % Control. Format: binding.

The target of another assay is T6, HCK (Homo sapiens, UniProt P08631).
T6 construct: purchased DiscoveRx (Fremont, CA)
Kind of assay: KinomeScan. To be noted: read-out: % Control. Format: binding.

The target of a further assay is T7, ICK (Homo sapiens, UniProt Q9UPZ9).
T7 construct: purchased DiscoveRx (Fremont, CA)
Kind of assay: KinomeScan. Format: binding. To be noted: read-out: % Control.

For assay [1], the target named is T8, JAK2(JH1domain-catalytic) (Homo sapiens, UniProt O60674).
T8 construct: JAK2(JH1domain-catalytic); purchased DiscoveRx (Fremont, CA)
Kind of assay: KinomeScan. Format: binding. To be noted: read-out: % Control.

In a further assay the target is T9, MKNK1 (Homo sapiens, UniProt Q9BUB5).
T9 construct: purchased DiscoveRx
Kind of assay: KinomeScan. Format: binding. To be noted: read-out: % Control.

The target of a further assay is T10, MLK3 (Homo sapiens, UniProt Q16584).
T10 construct: purchased DiscoveRx
Kind of assay: KinomeScan. Format: binding. To be noted: read-out: % Control.

The target in a further assay is T11, MYLK4 (Homo sapiens, UniProt Q86YV6).
T11 construct: purchased DiscoveRx
Kind of assay: KinomeScan. To be noted: read-out: % Control. Format: binding.

For the next assay, the target named is T12, STK35 (Homo sapiens, UniProt Q8TDR2).
T12 construct: purchased DiscoveRx (Fremont, CA)
Put plainly: KinomeScan. Format: binding. Conditions: read-out: % Control.

The next assay deals with T13, 5-HT2C (Homo sapiens, UniProt P28335).
T13 construct: host or cells: Chem-1 cells with promiscuous Gα15
Kind of assay: GPCR Profiler. Format: cell-based.

Another assay deals with T14, 5-HT4B (Homo sapiens, UniProt Q13639).
T14 construct: host or cells: Chem-1 cells with promiscuous Gα15
Put plainly: GPCR Profiler. Format: cell-based.

A further assay deals with T15, AT1 (Homo sapiens, UniProt P30556).
T15 construct: host or cells: Chem-1 cells with promiscuous Gα15
Put plainly: GPCR Profiler. Format: cell-based.

The next assay addresses T16, BB2 (Homo sapiens, UniProt P30550).
T16 construct: host or cells: Chem-1 cells with promiscuous Gα15
Kind of assay: GPCR Profiler. Format: cell-based.

A further assay addresses T17, CysLT1 (Homo sapiens, UniProt Q9Y271).
T17 construct: host or cells: Chem-1 cells with Gα15
Put plainly: GPCR Profiler. Format: cell-based.

For a further assay, the target named is T18, H3 (Homo sapiens, UniProt Q9Y5N1).
T18 construct: host or cells: Chem-1 cells with promiscuous Gα15
Put plainly: GPCR Profiler. Format: cell-based.

A further assay has as its target T19, NTR1 (Homo sapiens, UniProt P30989).
T19 construct: host or cells: Chem-1 cells expressing Gα15
Put plainly: GPCR Profiler. Format: cell-based.

In another assay the test system is MCF7. Kind of assay: Cell Titer-Glo viability, Breast adenocarcinoma. Format: cell-based. The method, then:
(§1) OGM2 kills wide variety of cancer cell types. Cell sensitivity can be classified in to Very Sensitive (LC50<2 μM), Sensitive (LC50=2 to 10 μM), Mildly Sensitive (LC50>10 μM), and Refractory (no killing at 10 μM). The listed established cell were incubated with OGM2 at 2 μM or 10 μM for 72 hours under standard cell culture conditions, and relative cell number was assessed using Cell Titer-Glo Luminescent Cell Viability Assay (Promega™) following the manufacturer's instructions. Luminescence was determined using a Cytation 5 reader and Gen5 software package (BioTek™).
(§2) Cancer cells, which are very sensitive to killing by OGM2 (LCs <2 μM), with reported mRNA expression of GPR68 and the related proton sensing receptor GPR4. LC50's (concentrations causing 50% lethality) were determined using CellTiter-Glo (Promega™, G7570). Cells were plated in 12-well plates (CELLTREAT Scientific Products, 229112) in 1 ml of DMEM with high glucose, GlutaMAX, HEPES, or RPMI 1640 with Penicillin-Streptomycin (ThermoFisher™, 10564029, 11875119 and 15140122) and 10% FBS. Cells were incubated overnight at 37° C. in 5% CO2. Then 1 mL of fresh media was added with DMSO, OGM, or positive control (Erastin; APExBIO Technology, LLC, B1524) and cells incubated for 3 days. On the third day, all media was removed, cells were rinsed with 1×PBS, PBS was removed, and 200 μL of 1× Passive Lysis Buffer (Promega™, E1941) was added to each well. […]. Subsequently, 20 μL of lysate was added to 100 μL CellTiter-Glo™ reagent on a LUMITRAC 200 plate (Greiner™ bio-one, 82050-726). Plates were briefly spun down and read on a GloMax-Multi Detection System (Promega™).
(§3) The cells listed in the tables above were incubated with OGM2 at 2 μM or 10 μM for 72 hours under standard cell culture conditions, and relative cell number was assessed using Cell Titer-Glo Luminescent Cell Viability Assay (Promega™) following the manufacturer's instructions. Luminescence was determined using a Cytation 5 reader and Gen5 software package (BioTek™). RNA expression of GPR68 and GPR4 in the corresponding cancer cell lines are listed, according to the publicly available The Human Protein Atlas version 22.0 and Ensembl version 103.38 (see proteinatlas.org). The consensus normalized expression value (“nTPM”=normalize transcript per million) was calculated as the maximum nTPM value for each gene in the two data sources.
(In general: Cellular ATP, detected with luciferase, serves as a proxy for viable cell number.)

In the next assay the test system is MDA-MB-231. Kind of assay: Cell Titer-Glo viability, Breast adenocarcinoma. Format: cell-based. Here is the method:
as §1, §2, §3

A further assay concerns MDA-MB-436. Kind of assay: Cell Titer-Glo viability, Breast adenocarcinoma. Format: cell-based. Here is the method: as §1, §2, §3

T16 sequence (P30550 whole entry): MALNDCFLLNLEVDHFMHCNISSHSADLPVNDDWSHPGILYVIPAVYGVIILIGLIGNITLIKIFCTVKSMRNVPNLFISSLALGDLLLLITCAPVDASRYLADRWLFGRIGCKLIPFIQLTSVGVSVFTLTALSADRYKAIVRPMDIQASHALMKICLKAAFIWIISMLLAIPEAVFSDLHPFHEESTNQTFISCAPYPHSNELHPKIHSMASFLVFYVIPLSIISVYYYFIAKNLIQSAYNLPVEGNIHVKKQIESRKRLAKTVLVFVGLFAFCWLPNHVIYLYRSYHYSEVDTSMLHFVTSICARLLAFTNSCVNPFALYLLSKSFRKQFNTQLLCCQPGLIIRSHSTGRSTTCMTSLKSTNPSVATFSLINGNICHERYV
T13 sequence (P28335 33-458): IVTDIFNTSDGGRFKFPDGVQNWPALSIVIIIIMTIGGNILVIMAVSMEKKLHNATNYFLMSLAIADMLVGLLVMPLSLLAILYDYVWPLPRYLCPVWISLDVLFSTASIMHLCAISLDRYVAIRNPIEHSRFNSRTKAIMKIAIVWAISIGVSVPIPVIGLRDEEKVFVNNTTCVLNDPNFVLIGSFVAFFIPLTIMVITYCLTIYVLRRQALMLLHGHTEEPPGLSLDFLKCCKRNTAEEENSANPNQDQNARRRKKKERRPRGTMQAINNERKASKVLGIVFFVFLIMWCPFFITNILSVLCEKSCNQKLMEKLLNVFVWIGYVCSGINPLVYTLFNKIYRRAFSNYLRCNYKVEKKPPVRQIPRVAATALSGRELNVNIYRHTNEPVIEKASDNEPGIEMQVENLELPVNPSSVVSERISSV
T15 sequence (P30556 whole entry): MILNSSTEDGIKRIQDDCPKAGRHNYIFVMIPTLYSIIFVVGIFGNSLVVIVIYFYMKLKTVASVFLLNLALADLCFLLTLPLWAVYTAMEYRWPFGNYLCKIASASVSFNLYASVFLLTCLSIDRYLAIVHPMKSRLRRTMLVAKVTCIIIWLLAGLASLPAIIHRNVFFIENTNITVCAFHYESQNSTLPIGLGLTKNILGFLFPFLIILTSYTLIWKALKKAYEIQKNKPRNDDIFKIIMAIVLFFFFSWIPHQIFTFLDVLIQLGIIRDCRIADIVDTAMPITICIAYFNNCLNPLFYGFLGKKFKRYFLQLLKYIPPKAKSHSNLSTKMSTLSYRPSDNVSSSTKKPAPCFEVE
T14 sequence (Q13639 whole entry): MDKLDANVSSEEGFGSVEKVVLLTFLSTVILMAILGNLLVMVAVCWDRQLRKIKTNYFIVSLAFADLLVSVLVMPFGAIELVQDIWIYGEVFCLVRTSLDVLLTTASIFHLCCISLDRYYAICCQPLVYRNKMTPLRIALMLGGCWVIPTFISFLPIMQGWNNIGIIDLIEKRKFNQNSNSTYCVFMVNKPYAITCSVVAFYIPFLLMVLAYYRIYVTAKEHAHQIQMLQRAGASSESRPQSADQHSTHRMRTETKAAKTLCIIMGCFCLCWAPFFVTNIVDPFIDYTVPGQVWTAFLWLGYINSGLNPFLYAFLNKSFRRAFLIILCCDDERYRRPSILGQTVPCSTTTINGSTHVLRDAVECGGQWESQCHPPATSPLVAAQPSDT
T18 sequence (Q9Y5N1 whole entry): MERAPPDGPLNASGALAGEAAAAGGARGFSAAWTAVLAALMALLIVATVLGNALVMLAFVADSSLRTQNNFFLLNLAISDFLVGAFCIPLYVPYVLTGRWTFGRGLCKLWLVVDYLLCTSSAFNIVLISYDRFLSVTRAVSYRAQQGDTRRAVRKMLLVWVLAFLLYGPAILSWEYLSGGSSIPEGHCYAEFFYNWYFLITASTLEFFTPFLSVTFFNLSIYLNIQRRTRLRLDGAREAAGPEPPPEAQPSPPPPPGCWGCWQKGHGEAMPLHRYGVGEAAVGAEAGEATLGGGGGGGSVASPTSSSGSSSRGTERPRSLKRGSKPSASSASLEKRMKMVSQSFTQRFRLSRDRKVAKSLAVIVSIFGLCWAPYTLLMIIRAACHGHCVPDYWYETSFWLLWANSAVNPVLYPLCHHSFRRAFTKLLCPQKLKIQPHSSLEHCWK
T19 sequence (P30989 whole entry, species assumed): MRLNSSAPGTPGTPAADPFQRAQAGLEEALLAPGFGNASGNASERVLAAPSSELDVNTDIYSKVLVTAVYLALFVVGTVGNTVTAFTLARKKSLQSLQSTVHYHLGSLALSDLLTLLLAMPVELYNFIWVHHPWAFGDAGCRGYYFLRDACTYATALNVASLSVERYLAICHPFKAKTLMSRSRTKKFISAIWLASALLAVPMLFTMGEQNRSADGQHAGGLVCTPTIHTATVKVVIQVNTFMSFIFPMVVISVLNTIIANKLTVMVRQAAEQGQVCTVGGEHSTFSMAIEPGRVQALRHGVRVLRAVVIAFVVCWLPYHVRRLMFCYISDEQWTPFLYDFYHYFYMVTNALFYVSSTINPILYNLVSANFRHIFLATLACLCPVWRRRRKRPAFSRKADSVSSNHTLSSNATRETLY
T17 sequence (Q9Y271 whole entry, species assumed): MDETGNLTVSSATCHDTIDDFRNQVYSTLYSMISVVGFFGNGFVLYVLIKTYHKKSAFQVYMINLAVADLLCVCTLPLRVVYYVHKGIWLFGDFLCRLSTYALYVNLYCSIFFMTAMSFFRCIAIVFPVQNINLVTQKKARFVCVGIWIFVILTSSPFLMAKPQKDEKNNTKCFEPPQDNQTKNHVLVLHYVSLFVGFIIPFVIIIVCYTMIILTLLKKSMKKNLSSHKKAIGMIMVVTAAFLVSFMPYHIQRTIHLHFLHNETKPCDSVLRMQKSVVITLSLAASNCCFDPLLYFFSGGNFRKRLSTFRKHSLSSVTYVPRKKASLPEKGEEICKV
T7 sequence (Q9UPZ9 whole entry): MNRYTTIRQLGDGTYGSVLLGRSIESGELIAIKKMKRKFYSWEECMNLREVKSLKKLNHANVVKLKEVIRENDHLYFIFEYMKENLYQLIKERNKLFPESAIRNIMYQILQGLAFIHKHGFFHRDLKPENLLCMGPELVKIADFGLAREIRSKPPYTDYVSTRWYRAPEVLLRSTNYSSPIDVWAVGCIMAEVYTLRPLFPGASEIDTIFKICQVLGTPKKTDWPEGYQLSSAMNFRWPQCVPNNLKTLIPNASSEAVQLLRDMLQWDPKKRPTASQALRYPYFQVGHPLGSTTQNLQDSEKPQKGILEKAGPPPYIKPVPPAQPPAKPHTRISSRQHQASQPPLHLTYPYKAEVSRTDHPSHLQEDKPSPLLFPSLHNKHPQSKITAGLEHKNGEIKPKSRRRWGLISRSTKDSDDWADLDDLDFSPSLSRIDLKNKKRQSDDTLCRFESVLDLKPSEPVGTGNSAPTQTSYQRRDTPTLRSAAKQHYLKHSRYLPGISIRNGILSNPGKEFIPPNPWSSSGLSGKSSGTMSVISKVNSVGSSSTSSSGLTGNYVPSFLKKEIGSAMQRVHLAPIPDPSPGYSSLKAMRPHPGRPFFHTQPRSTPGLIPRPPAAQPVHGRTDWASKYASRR
T9 sequence (Q9BUB5 whole entry): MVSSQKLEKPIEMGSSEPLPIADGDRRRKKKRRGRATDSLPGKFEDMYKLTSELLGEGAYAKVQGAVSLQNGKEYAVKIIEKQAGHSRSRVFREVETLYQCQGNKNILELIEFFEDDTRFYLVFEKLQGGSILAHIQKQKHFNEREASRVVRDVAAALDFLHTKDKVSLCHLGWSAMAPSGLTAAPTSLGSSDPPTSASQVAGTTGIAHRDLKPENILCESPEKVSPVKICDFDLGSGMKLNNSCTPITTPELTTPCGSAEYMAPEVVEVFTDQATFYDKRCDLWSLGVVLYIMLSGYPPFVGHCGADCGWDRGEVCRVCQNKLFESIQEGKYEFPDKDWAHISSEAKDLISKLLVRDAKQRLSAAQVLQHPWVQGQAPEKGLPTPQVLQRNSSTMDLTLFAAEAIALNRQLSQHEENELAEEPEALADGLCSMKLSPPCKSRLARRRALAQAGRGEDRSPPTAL
T2 sequence (P11802 whole entry): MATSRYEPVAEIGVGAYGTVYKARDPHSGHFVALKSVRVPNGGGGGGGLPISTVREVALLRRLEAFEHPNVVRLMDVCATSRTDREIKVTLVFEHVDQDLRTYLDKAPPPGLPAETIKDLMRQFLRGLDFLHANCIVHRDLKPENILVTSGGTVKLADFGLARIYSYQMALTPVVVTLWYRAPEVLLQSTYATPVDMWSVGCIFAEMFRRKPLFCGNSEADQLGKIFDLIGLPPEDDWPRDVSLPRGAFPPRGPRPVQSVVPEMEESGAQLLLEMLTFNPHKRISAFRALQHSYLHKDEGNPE
T2 sequence (P24385 whole entry partner): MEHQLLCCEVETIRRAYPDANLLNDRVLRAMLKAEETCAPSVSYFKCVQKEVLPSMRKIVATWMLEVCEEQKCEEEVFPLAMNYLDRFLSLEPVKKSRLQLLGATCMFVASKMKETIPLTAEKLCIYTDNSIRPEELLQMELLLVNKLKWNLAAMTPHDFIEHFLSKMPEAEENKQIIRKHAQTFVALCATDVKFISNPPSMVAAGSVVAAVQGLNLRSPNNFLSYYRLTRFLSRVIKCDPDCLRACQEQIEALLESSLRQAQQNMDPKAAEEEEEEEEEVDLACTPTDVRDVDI
T5 sequence (P00533 with tags, fused parts or gaps DEL747-750/T751S limits assumed): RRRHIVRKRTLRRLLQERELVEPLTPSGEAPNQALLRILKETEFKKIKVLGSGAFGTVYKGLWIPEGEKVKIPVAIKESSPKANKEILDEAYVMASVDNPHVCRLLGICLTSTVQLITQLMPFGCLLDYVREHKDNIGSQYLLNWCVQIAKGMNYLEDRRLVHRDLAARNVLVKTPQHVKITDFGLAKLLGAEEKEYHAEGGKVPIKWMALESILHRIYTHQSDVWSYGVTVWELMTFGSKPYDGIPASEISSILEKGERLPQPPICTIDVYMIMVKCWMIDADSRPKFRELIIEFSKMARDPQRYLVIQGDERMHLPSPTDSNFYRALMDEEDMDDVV

For `CCc1ccc2c(c1)C1(NN=C(c3cccc4ccccc34)S1)C(=O)N2` (centres unmarked) [OGM1, 5-ethyl-5′-naphthalen-1-ylspiro[1H-indole-3,2′-3H-1,3,4-thiadiazole]-2-one], the remaining binding at 10 µM at BMPR1A worked out at 100%; at CDK4-cyclinD1, 69%; on DDR1, 100%; on DMPK it was 86%; at EGFR(L747-T751del, Sins), 100%; on HCK, 96%. The remaining binding at 10 µM is 81% at ICK; 100% in assay [1]; 90% at MKNK1; 100% at MLK3; 98% on MYLK4; 100% at STK35. Also, the Antagonism is −10.9 on 5-HT2C (10 uM); −24.1 on 5-HT4B (10 uM); −0.7 at AT1 (10 uM); 0 on BB2 (10 uM); −2.4 at CysLT1 (10 uM); −3.3 on H3 (10 uM). Also, on NTR1 (10 uM), the Antagonism was found to be 1.6. The Agonism at 5-HT2C (12.5 uM) is 2.2; at 5-HT4B (12.5 uM) it was 4.1; on AT1 (12.5 uM) it was −0.4; on BB2 (12.5 uM) it was −0.2; on CysLT1 (12.5 uM), 0.8; on H3 (12.5 uM), 0.5. Besides, the Agonism on NTR1 (12.5 uM) worked out at 1.
Take `CCc1ccc2c(c1)C1(NN=C(c3ccccc3)S1)C(=O)N2` (centres unmarked) [OGM2]: the Class entry with MCF7, in the assay with MDA-MB-231 and in the assay on MDA-MB-436 was “Sensitive (Sensitive (LC50=2 to 10 μM))” in each case. Also, the “% Survival 2 μM OGM” value with MCF7 (72 hours) amounted to 50.6%; with MDA-MB-231 (72 hours), 70.1%; in the assay on MDA-MB-436 (72 hours), 52.6%. Further, the results for the “% Survival 10 μM OGM” value with MCF7 (72 hours), in the assay on MDA-MB-231 (72 hours) and with MDA-MB-436 (72 hours) were 25.2%, 48.1% and 35.7%, respectively. The CC50 with MCF7 (Homo sapiens, MCF7, 72 hours, read-out: LC50 (the source's name)) is 2 to 10 µM; in the assay on MDA-MB-231 (Homo sapiens, MDA-MB-231, 72 hours, read-out: LC50 (the source's name)) it was 2 to 10 µM; with MDA-MB-436 (Homo sapiens, MDA-MB-436, 72 hours, read-out: LC50 (the source's name)), 2 to 10 µM.
